± gives the standard deviation of the averaged measurements.
Test system: VA-ES-BJ
Test: relative viability vs DMSO control (72 h) (fraction); higher = more viable cells
In short: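 Sarcoma cell lines were grown in 384-well plates seeded toward 80–90% confluence and exposed 24 h later to serially diluted compound. After 72 h at 37 °C and 5% CO2, with 0.1% DMSO vehicle and a 5 µM positive control on the plates, ATPLite was read. Relative viability, given as percent growth averaged over up to triplicate wells, was rescaled so that 1 is full and 0 is none.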

SMILES	relative viability (0.00017 µM)	relative viability (0.00051 µM)	relative viability (0.00152 µM)	relative viability (0.00457 µM)	relative viability (0.01372 µM)	relative viability (0.04115 µM)	relative viability (0.1235 µM)	relative viability (0.3704 µM)	relative viability (1.111 µM)	relative viability (3.333 µM)	relative viability (10 µM)
CCN1CCN(Cc2ccc(Nc3ncc(F)c(-c4cc(F)c5nc(C)n(C(C)C)c5c4)n3)nc2)CC1 [Abemaciclib]	1.02 ± 0.014	1.03 ± 0.0088	1.015 ± 0.0082	1 ± 0.019	0.994 ± 0.037	0.92 ± 0.042	0.779 ± 0.032	0.694 ± 0.018	0.681 ± 0.023	0.562 ± 0.021	0.427 ± 0.056
CC(C)NC(=O)C1CCC(n2c(NC(=O)c3ccc(F)cc3)nc3ccc(CN4CCC(C(C)(C)O)CC4)cc32)CC1 (stereo not drawn) [Belizatinib]	1.05 ± 0.04	1.07 ± 0.059	1.05 ± 0.064	1.04 ± 0.018	1.08 ± 0.022	1.06 ± 0.046	1 ± 0.017	0.926 ± 0.014	0.658 ± 0.012	0.359 ± 0.012	0.164 ± 0.0087
CC[C@H](Nc1ncnc2[nH]cnc12)c1nc2cccc(F)c2c(=O)n1-c1ccccc1 [Idelalisib]	1.12 ± 0.01	1.12 ± 0.052	1.09 ± 0.015	1.09 ± 0.071	1.06 ± 0.03	1.07 ± 0.041	1.05 ± 0.026	1.03 ± 0.053	0.931 ± 0.041	0.872 ± 0.035	0.705 ± 0.038
CC(C)(C)c1cc(NC(=O)Nc2ccc(-c3cn4c(n3)sc3cc(OCCN5CCOCC5)ccc34)cc2)no1 [Quizartinib]	1.06 ± 0.028	1.06 ± 0.038	1.05 ± 0.019	1.06 ± 0.032	1.05 ± 0.026	1.05 ± 0.038	1.02 ± 0.059	1.04 ± 0.03	1.02 ± 0.045	0.947 ± 0.022	0.831 ± 0.032
Cc1cnc(Nc2ccc(OCCN3CCCC3)cc2)nc1Nc1cccc(S(=O)(=O)NC(C)(C)C)c1 [Fedratinib]	1.06 ± 0.042	1.08 ± 0.013	1.03 ± 0.023	1.05 ± 0.021	1.04 ± 0.013	1 ± 0.037	1.02 ± 0.032	0.781 ± 0.018	0.403 ± 0.019	0.152 ± 0.0076	-0.0115 ± 0.0047
CC1(C)CNc2cc(NC(=O)c3cccnc3NCc3ccncc3)ccc21 [Motesanib]	0.98 ± 0.021	0.982 ± 0.018	0.976 ± 0.041	1 ± 0.03	0.9877 ± 0.0081	1 ± 0.017	1.011 ± 0.0069	1.02 ± 0.022	1.04 ± 0.042	1.04 ± 0.024	1.03 ± 0.029
Nc1cc(C(F)(F)F)c(-c2cc(N3CCOCC3)nc(N3CCOCC3)n2)cn1 [Buparlisib]	1.01 ± 0.043	1 ± 0.053	0.999 ± 0.027	1.01 ± 0.032	0.997 ± 0.035	0.983 ± 0.055	0.875 ± 0.058	0.663 ± 0.018	0.316 ± 0.0056	0.189 ± 0.0041	0.1818 ± 0.0013
Cc1cc(C)c(/C=C2\C(=O)Nc3ccccc32)[nH]1 [Semaxanib]	0.973 ± 0.027	0.969 ± 0.045	0.969 ± 0.039	0.97 ± 0.023	0.948 ± 0.016	0.914 ± 0.014	0.922 ± 0.021	0.901 ± 0.048	0.889 ± 0.043	0.902 ± 0.016	0.855 ± 0.078
CCc1cc2c(cc1N1CCC(N3CCOCC3)CC1)C(C)(C)c1[nH]c3cc(C#N)ccc3c1C2=O [Alectinib]	1.03 ± 0.047	1.07 ± 0.042	1.04 ± 0.057	1.04 ± 0.027	1.02 ± 0.041	1.06 ± 0.048	1.04 ± 0.0046	0.891 ± 0.27	0.912 ± 0.26	0.941 ± 0.24	0.905 ± 0.25
Cn1cnc2c(F)c(Nc3ccc(Br)cc3F)c(C(=O)NOCCO)cc21 [Binimetinib]	1.06 ± 0.011	1.09 ± 0.032	1.07 ± 0.037	1.02 ± 0.028	1.02 ± 0.044	0.966 ± 0.027	0.946 ± 0.071	0.921 ± 0.069	0.879 ± 0.046	0.794 ± 0.041	0.689 ± 0.058
C=CC(=O)Nc1cccc(Oc2nc(Nc3ccc(N4CCN(C)CC4)cc3)nc3ccsc23)c1 [Olmutinib]	1.01 ± 0.052	1.01 ± 0.029	1.01 ± 0.029	1.01 ± 0.027	1.02 ± 0.043	1 ± 0.039	0.996 ± 0.052	0.96 ± 0.065	0.905 ± 0.06	0.786 ± 0.038	0.534 ± 0.013
CN1CCN(c2ccc3nc(-c4c(N)c5c(F)cccc5[nH]c4=O)[nH]c3c2)CC1 [Dovitinib]	1.06 ± 0.027	1.06 ± 0.028	1.08 ± 0.044	1.08 ± 0.028	1.07 ± 0.029	1.06 ± 0.031	1.05 ± 0.025	0.956 ± 0.0053	0.738 ± 0.049	0.495 ± 0.021	0.313 ± 0.039
O=C(Cc1ccc(-c2ccc(OCCN3CCOCC3)cc2)cn1)NCc1ccccc1 [KX2-391]	1.09 ± 0.045	1.06 ± 0.043	1.06 ± 0.021	1.05 ± 0.044	0.96 ± 0.032	0.584 ± 0.026	0.385 ± 0.021	0.368 ± 0.021	0.314 ± 0.015	0.29 ± 0.017	0.309 ± 0.018
C[C@@H]1COCCN1c1cc(-c2ccnn2C)c2ccnc(-c3ccn[nH]3)c2n1	1.02 ± 0.024	1.02 ± 0.03	1.01 ± 0.0075	1.05 ± 0.018	0.97 ± 0.07	0.739 ± 0.039	0.464 ± 0.038	0.212 ± 0.015	0.191 ± 0.0065	0.19 ± 0.015	0.173 ± 0.019
CNC(=O)c1cc(Oc2ccc(NC(=O)Nc3ccc(Cl)c(C(F)(F)F)c3)c(F)c2)ccn1 [Regorafenib]	1.13 ± 0.018	1.15 ± 0.032	1.1 ± 0.019	1.083 ± 0.0058	1.11 ± 0.035	1.08 ± 0.023	1.18 ± 0.048	1.19 ± 0.08	1.21 ± 0.072	1.24 ± 0.12	0.684 ± 0.048
Cc1ccc(NC(=O)c2ccc(CN3CCN(C)CC3)cc2)cc1Nc1nc(-c2cccnc2)cs1 [Masitinib]	1.08 ± 0.016	1.078 ± 0.0055	1.05 ± 0.019	1.06 ± 0.033	1.08 ± 0.022	1.05 ± 0.013	1.02 ± 0.024	1.01 ± 0.038	0.897 ± 0.02	0.621 ± 0.016	0.177 ± 0.0072
CNC(=O)c1ccc(-c2cnc3ncc(Cc4ccc5ncccc5c4)n3n2)cc1F [Capmatinib]	1.06 ± 0.068	1.03 ± 0.042	1.01 ± 0.062	0.943 ± 0.04	0.87 ± 0.016	0.844 ± 0.03	0.839 ± 0.01	0.844 ± 0.017	0.878 ± 0.059	0.88 ± 0.035	0.855 ± 0.036
CCCS(=O)(=O)Nc1ccc(F)c(C(=O)c2c[nH]c3ncc(-c4ccc(Cl)cc4)cc23)c1F [Vemurafenib]	1.09 ± 0.048	1.08 ± 0.058	1.04 ± 0.063	1.06 ± 0.039	1.074 ± 0.0083	1.06 ± 0.042	1.09 ± 0.017	1.12 ± 0.056	1.12 ± 0.043	1.02 ± 0.042	0.769 ± 0.03

Source: the supplement of paper PMC10883282
